The results in this text go back to ChEMBL document CHEMBL1156421, “ApoA-I mimetic peptides with differing ability to inhibit atherosclerosis also exhibit differences in their interactions with membrane bilayers” (J Biol Chem, 2007).

One may read the half-life as how long it takes for the measured level to halve. Usually Tmax stands for the time from dosing to the highest level.

Series [1] can be described thus: Elimination half life in apoE deficient C57BL/6J mouse at 20 ug, ip. It is filed as ADME, organism-based. The following applies: in vivo.
The nature of series [2]: Time to Cmax in apoE deficient C57BL/6J mouse at 20 ug, ip. It is filed as ADME, organism-based. The settings on record: in vivo.
In series [3] the test system is Mus musculus. Briefly: Antiinflammatory activity in apoE deficient C57BL/6J mouse assessed as inhibition of atherosclerosis lesion area at 20 ug/day, ip administered for 4 weeks measured after 6 weeks. The series is classed as functional.
The subject of series [4] is Mus musculus. The series can be described thus: Cmax in apoE deficient C57BL/6J mouse at 20 ug, ip. The following applies: in vivo, at 20 µg. It is filed as ADME, organism-based. Also on record: dose 20 ug, route intraperitoneal.

Structures are written as SMILES.

Turning to `CC(C)C[C@H](NC(=O)[C@H](Cc1ccccc1)NC(=O)[C@H](CCC(=O)O)NC(=O)[C@H](CCCCN)NC(=O)[C@H](Cc1ccccc1)NC(=O)[C@H](C)NC(=O)[C@H](CCC(=O)O)NC(=O)[C@H](C)NC(=O)[C@H](Cc1ccccc1)NC(=O)[C@H](CCCCN)NC(=O)[C@H](CC(=O)O)NC(=O)[C@H](Cc1ccc(O)cc1)NC(=O)[C@@H](NC(=O)[C@H](C)NC(=O)[C@H](CCCCN)NC(=O)[C@H](Cc1c[nH]c2ccccc12)NC(=O)[C@H](CCCCN)NC(=O)[C@H](CC(=O)O)NC([14CH3])=O)C(C)C)C(N)=O`, the half-life in series [1] is 32.4 min. The Tmax in series [2] worked out at 16.8 min. Moreover, the Activity in the series with Mus musculus [3] stood at 15800 um2. Also, in the series with Mus musculus [4], the Cmax worked out at 5.52%.
The matching figures for `CC(C)C[C@H](NC(=O)[C@H](Cc1c[nH]c2ccccc12)NC(=O)[C@H](CC(=O)O)NC([14CH3])=O)C(=O)N[C@@H](CCCCN)C(=O)N[C@@H](C)C(=O)N[C@@H](Cc1ccccc1)C(=O)N[C@@H](Cc1ccc(O)cc1)C(=O)N[C@@H](CC(=O)O)C(=O)N[C@@H](CCCCN)C(=O)N[C@H](C(=O)N[C@@H](C)C(=O)N[C@@H](CCC(=O)O)C(=O)N[C@@H](CCCCN)C(=O)N[C@@H](Cc1ccccc1)C(=O)N[C@@H](CCCCN)C(=O)N[C@@H](CCC(=O)O)C(=O)N[C@@H](C)C(=O)N[C@@H](Cc1ccccc1)C(N)=O)C(C)C`: 126 min, 28.8 min, 20400 um2 and 12.29%.
